# What was measured:
# Assay type in all cases: cell-based
# [1] = system: sulfate-reducing bacteria (SRB); experiment: SRB surviving 3 h treatment, serial dilution enumeration (NACE TMO 194-2004)
# Text: Following the treatment, an aliquot of each sample was serially diluted (10-fold dilutions) into culture media for SRB to enumerate the survivors according to NACE TMO 194-2004.
# [2] = system: acid-producing bacteria (APB); experiment: Mitigation of APB growth in seawater, dilution series bottles; settings: 600 ppm product; seawater 3% TDS; contact 20 hours; three replicate columns
# Procedure: Various biocidal blends with only 50% THPS, only XC800, and different mixtures were tested, along with a control, at preventing or mitigating APB growth. The media was seawater with 3% total dissolved solids (TDS). Contact times were 20 hours and the reaction volume was 50 ml, using 8 bottles per dilution series string. APB growth was measured from 0 to 4 in logarithmic units.
# In FIG. 1, it is expected that the mitigation of APB growth would generally follow a straight line (dashed in FIG. 1) from 600 ppm THPS (50%) to 600 ppm XC800.
# [3] = system: bacterial-fouled water taken from an oil production site; experiment: Turbidity of bacterial-fouled oilfield water culture in synthetic brine; settings: 600 nm after 24 hours
# Procedure: A sample of a bacterial-fouled water was taken from an oil production site and used as a culture base for testing of cinnamaldehyde as a bactericide. The culture was introduced into a synthetic brine (similar to that used for oilfield operations) and turbidity was measure at 600 nm after 24 hours.
compound,measurement,setting,value
tetrakis hydroxymethyl phosphonium sulfate [THPS],SRB Surviving Treatment,"[1]; THPS 50 ppm, cinnamaldehyde 0 ppm",≧10^10 SRB/ml
same,SRB Surviving Treatment,"[1]; THPS 100 ppm, cinnamaldehyde 0 ppm",≧10^10 SRB/ml
same,SRB Surviving Treatment,"[1]; THPS 250 ppm, cinnamaldehyde 0 ppm",10^5 SRB/ml
tetrakis hydroxymethyl phosphonium sulfate [50% THPS only],APB growth (0 to 4),[2],1 logarithmic units
"O=CC=Cc1ccccc1 [Cinnamaldehyde, cinnamaldehyde]",Turbidity,[3]; cinnamaldehyde 50 ppm,1.854
same,Turbidity,[3]; cinnamaldehyde 125 ppm,0.973
same,Turbidity,[3]; cinnamaldehyde 250 ppm,0.175
same,Turbidity,[3]; cinnamaldehyde 375 ppm,0.103
same,Turbidity,[3]; cinnamaldehyde 500 ppm,0.113
same,SRB Surviving Treatment,"[1]; THPS 0 ppm, cinnamaldehyde 25 ppm",≧10^10 SRB/ml
same,SRB Surviving Treatment,"[1]; THPS 0 ppm, cinnamaldehyde 50 ppm",≧10^10 SRB/ml

# Source: patent publication US20150038471A1, “PROCESS FOR PREVENTING OR MITIGATING BIOFOULING” (Baker Hughes Incorporated, priority 2010, published 2015)
